Results: US20050277622A1, “1-Calcium phosphate-uracil and method for preparing thereof” (priority 2004, published 2005)

Experiments:
Format in all cases: in vivo, human
[1] = Clinical Case 1: continued bad cough not susceptive to antibiotics therapy; conditions: person two, oral, 15 mg per day for 5 days
Protocol: person two, who had been suffering from a continued bad cough for 2 months and not susceptive to antibiotics therapy, was administrated orally with medicament of 1-calcium phosphate-uracil for 5 days, 15 mg per day.

[2] = Clinical Case 2: cough, hyperplasia of prostate and constipation; conditions: person one, oral, 15 mg per day for 5 days
Protocol: person one, who had been suffering from cough for about 50 years and hyperplasia of prostate for 7 years and recently relapsed into continued cough for 15 days and constipation, was administrated orally with medicament of 1-calcium phosphate-uracil for 5 days, 15 mg per day.

[3] = Clinical Case 3: cold with fever of 39° C.; conditions: person, oral, 15 mg per day for 1 day
From the text: Therapeutic effect: fever was allayed after 1 day and symptom of cough disappeared after 2 days.

[4] = Clinical Case 4: fever of 40.5° C.; conditions: person, oral, 15 mg one time per day for 1 day
From the text: Therapeutic effect: fever was allayed after 1 day and symptom of cough disappeared after 3 days.

[5] = system: influenza; assay: Clinical Case 5: administration in advance during influenza period; conditions: 2 of 8 persons in a dormitory, oral in advance, 15 mg one time per day for 1 day; other 6 persons all infected
[6] = system: influenza; assay: Clinical Case 5: treatment of persons infected with influenza; conditions: 2 infected persons, oral, 15 mg one time per day for 3 days
Protocol: One day after infection, 2 of 6 infected persons were administrated orally with medicament of 1-calcium phosphate-uracil for 3 day, one time per day, 15 mg each time. Therapeutic effect: fever was allayed after 1 day and symptom of cough faded away after 3 days. Instead of being administrated with medicament of 1-calcium phosphate-uracil, the other 4 infected persons were treated according to conventional therapeutic regimen, recovered until after 15 days.

[7] = Clinical Case 6: constipation for about 10 years; conditions: 4 persons, 1-2 times a week on conventional drugs; oral, 12 mg˜15 mg one time per day for 1 day
From the text: 4 persons, who had suffered from constipation for about 10 years, defecated 1-2 times a week when administrated with conventional drugs.

[8] = Clinical Case 7: frequent premature beat, cardiac distress and constipation; conditions: person, oral
Protocol: A person, who had suffered from frequent premature beat, cardiac distress for 3 years and constipation for 5 years, was administrated orally with medicament of 1-calcium phosphate-uracil for 20 days, 13 mg per day.
The therapeutic effect: the symptoms of palpitation premature beat and cardiac distress disappeared completely after 20 days from administration and constipation symptom disappeared after 1 day from administration.

[9] = Clinical Case 8: sleeping and stamina; conditions: 20 persons aging 12˜70 years; 15 mg per day for one day
From the text: The medicament can ameliorate sleeping and supplement stamina.

[10] = Clinical Case 9: liver cancer in a most serious stage; conditions: person; oral, 15 mg one time per day for 10 months
Protocol: A person, who suffered liver cancer in a most serious stage, was administrated orally with medicament of 1-calcium phosphate-uracil for 10 months, one time per day, 15 mg each time.
Therapeutic effect: liver tumor was disappeared upon the examination of CT.

## 1-calcium phosphate-uracil
[1]; cough for 2 months
  symptom of cough: cured completely
[1]
  symptom of incontinence of urine: disappeared
[2]; continued cough for 15 days
  cough symptom: alleviated
[2]; hyperplasia of prostate for 7 years
  frequency of nocturia: decreased significantly
[2]
  constipation: disappeared
[3]; fever of 39° C.
  fever was allayed after: 1 days
[3]
  symptom of cough disappeared after: 2 days
[4]; fever of 40.5° C.
  fever was allayed after: 1 days
[4]
  symptom of cough disappeared after: 3 days
[5]
  infection with influenza: not infected with influenza
[6]; one day after infection
  fever was allayed after: 1 days
[6]; conventional regimen recovered after 15 days
  symptom of cough faded away after: 3 days
[7]
  defecation: defecated smoothly, once a day
[8]; constipation for 5 years, 13 mg per day
  constipation symptom disappeared after: 1 days
[8]; 13 mg per day for 20 days
  symptoms of palpitation premature beat and cardiac distress disappeared completely after: 20 days
[9]
  sleeping on the same day: good sleeping
  stamina in the next day: full of vigor
[10]
  liver tumor upon the examination of CT: disappeared
